Results as given in patent publication US12630804B2, “Blood brain barrier model” (UNIVERSITY OF LANCASHIRE, priority 2016, dated 2026).

System: blood brain barrier model
Test: Permeability of test/known compounds across the blood brain barrier model (TEER and fluorescence in basolateral compartment)
Type: in vitro ADME, human
Details: added to apical side; TEER and appearance in basolateral compartment, 0.5-6 h; aptamers 100 nM cy5-tagged
Protocol: The blood brain barrier model was exposed to a test/known compounds to determine permeability. The final concentration of compound introduced to the apical well was determined previously using a viability assay, and a concentration chosen that minimised toxicity to the BBB cells (<IC50). Test compounds (short DNA oligonucleotide glioma selective aptamers (100 nM) tagged with cy5 (GL21, scrambled) and lipid nanoparticles (NPs) loaded with 0.33 μg/ml docetaxel or 2.87 μg/ml curcumin tagged with rhodamine123 and transferrin ligand) were prepared in house. When the TEER values for the BBB model peaked, 3.33 μg/ml Evans Blue Dye (EBD) was added to the apical side of the BBB model to determine if the barrier formed was intact. The test and control compounds were introduced to the well and time dependent TEER measurements were taken along with fluorescent measurements of samples at time points between 0.5-6 h from the basolateral side of the well for determination of appearance of the fluorescent tagged compounds. […] The activity was calculated as % fluorescence relative to the stock concentration of the NPs and then plotted
The blood brain barrier model was exposed to a test compound and the permeability of the barrier to said test compound was measured and compared to the permeability of the blood brain barrier model to known compounds. […]

permeation across blood brain barrier model: no permeability
SMILES: Cc1cc(-c2ccc(N=Nc3ccc4c(S(=O)(=O)[O-])cc(S(=O)(=O)[O-])c(N)c4c3O)c(C)c2)ccc1N=Nc1ccc2c(S(=O)(=O)[O-])cc(S(=O)(=O)[O-])c(N)c2c1O.[Na+].[Na+].[Na+].[Na+] [Evan's blue, Evan's Blue]
